Test results reported in US8846699B2, “Quinazoline derivatives as a multiplex inhibitor and method for the preparation thereof” (Hanmi Pharm. Co., Ltd., priority 2005, dated 2014).
pIC50: −log10 of the molar value.

What was measured:
[1] = test system: breast cancer cell line, SK-Br3; assay: Inhibitory effect on growth of cancer cell line SK-Br3, SRB; type: cell-based; conditions: overexpressed EGFR2 (HER-2)
Description: (§1) A skin cancer cell line, A431 (ATCC: CRL-1555), a breast cancer cell line, SK-Br3 (ATCC: HTB-30), and a colon and rectal cancer cell line, SW-620 (ATCC: CCL-227) were used to test the degrees of cancer cell growth inhibition using a culture medium, DEME (Dulbecco's Modified Eagle's Medium, JBI) including 4.5 g/l of glucose and 1.5 g/l of sodium bicarbonate and supplemented with 10% FBS (fetal bovine serum, JBI).
(§2) The cancer cell lines stored in a liquid nitrogen tank were each quickly thawed at 37° C., and centrifuged to remove the medium. The resulting cell pellet was mixed with a culture medium, incubated in a culture flask at 37° C. under 5% CO2 for 2 to 3 days, and the medium was removed. The remaining cells were washed with DPBS (Dulbecco's Phosphate Buffered Saline, JBI) and separated from the flask by using Trypsin-EDTA solution, and the separated cells were diluted with a culture medium to a concentration of 1.0×10^6 cells/ml in case of A431 and SW-620, and 2.0×10^6 cells/ml in case of SK-Br3. 100 μl of the diluted cell solution was added to each well of a 96-well plate, which was incubated at 37° C. under 5% CO2 for 1 day.
(§3) In case that the test compound was not soluble in DMSO, a small amount of 1% HCl was added thereto and treated in a 40° C. water bath for 30 mins until complete dissolution was attained. The test compound solution was diluted with a culture medium to a final concentration of 10 μM, and then diluted 10 times serially to 10^−4. The final concentration of DMSO was less than 1%, and the control compounds of Test Example 1 were used at a concentration of 0.0001 to 10 μM.
(§4) The medium was removed from each well of the 96-well microplate, 100 μl of a diluted test compound solution was added to each well holding cultured cells, and the microplate was incubated at 37° C. under 5% CO2 for 72 hours. After removing the medium from the plate, 50 μl of 10% trichloroacetic acid was added to each well, and the plate was kept at 37° C. for 1 hour to fix the cells to the bottom of the plate. 10% trichloroacetic acid was removed from each well, the plate was dried, 100 μl of an SRB (Sulforhodamine-B, Sigma) dye solution was added thereto, and reacted for 10 mins. The SRB dye solution was prepared by dissolving SRB in 1% acetic acid to a concentration of 0.4%. After removing the dye solution, the plate was washed with water, and dried. When the dye solution was not removed by water, 1% acetic acid was used.
(§5) 150 μl of 10 mM trisma base (Sigma) was added to each well, and the absorbance at 570 nm was determined with a microplate reader (Molecular device).

[2] = test system: colon and rectal cancer cell line, SW-620; assay: Inhibitory effect on growth of cancer cell line SW-620, SRB; type: cell-based; conditions: not having overexpressed EGFR and EGFR2
Description: as §1, §2, §3, §4, §5

EGFR1 (HER-1) = EGFR1 (HER-1) (Homo sapiens (Human), UniProt P00533); assay: EGFR1 (HER-1) enzyme assay, fluorescence polarization; type: biochemical; conditions: 100 μM ATP, poly(Glu, Tyr) substrate
Chain of EGFR1 (HER-1) (P00533 25-1210): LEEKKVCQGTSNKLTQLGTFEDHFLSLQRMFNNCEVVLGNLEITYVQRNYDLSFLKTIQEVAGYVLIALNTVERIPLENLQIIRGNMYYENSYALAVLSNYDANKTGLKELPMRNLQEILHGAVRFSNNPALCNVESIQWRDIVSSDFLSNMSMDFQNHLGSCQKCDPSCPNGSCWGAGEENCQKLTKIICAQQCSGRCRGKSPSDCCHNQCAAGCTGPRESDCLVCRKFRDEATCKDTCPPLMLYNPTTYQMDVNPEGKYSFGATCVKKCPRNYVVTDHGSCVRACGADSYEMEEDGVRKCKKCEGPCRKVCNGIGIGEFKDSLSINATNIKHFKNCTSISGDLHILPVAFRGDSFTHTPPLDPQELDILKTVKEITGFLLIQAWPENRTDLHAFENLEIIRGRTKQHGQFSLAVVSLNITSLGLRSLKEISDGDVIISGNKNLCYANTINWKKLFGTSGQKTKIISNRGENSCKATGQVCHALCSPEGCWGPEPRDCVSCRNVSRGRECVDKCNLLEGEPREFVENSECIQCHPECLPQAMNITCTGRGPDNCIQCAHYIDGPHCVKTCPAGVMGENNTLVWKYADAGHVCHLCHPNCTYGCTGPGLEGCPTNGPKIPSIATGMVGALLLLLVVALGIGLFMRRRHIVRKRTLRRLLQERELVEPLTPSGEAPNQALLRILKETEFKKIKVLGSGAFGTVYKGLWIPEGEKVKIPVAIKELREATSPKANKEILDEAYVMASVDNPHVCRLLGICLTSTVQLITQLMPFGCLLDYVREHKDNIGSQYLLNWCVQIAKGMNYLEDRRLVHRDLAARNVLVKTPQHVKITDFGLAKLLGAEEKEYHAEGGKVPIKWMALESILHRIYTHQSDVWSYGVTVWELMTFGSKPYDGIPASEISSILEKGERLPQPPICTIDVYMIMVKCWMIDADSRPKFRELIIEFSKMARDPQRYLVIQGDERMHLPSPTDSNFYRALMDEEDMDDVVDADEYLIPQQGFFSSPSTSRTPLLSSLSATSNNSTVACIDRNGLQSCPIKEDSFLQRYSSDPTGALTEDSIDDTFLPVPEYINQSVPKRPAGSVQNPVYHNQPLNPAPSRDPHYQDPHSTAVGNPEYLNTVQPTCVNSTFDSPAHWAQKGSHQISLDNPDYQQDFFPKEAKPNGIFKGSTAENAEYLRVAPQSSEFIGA

[3] = test system: Human Umbilical Vein Endothelial Cell (HUVEC); assay: Inhibitory effect on growth of human umbilical vein endothelial cell (HUVEC), MTS; type: cell-based; conditions: 10 ng/ml VEGF, absorbance 490 nm
Method: HUVECs (Young Science, Inc) were suspended in a culture medium, EBM-2 (Endothelial Basic Media, Cambrex) supplemented with 2% bovine serum (Cambrex) and auxiliary additives for HUVEC culture (e.g., EGF, VEGF, FGF, etc., Cambrex), inoculated into a culture flask coated with 1% gelatin, and incubated in an incubator at 37° C. under 5% CO2 and 100% humidity.
100 μl of 5% bovine serum medium containing 10 ng/ml of vascular endothelial growth factor (VEGF) and auxiliary additives, while excluding other growth factors was added to each well of a 96-well plate. […] DMSO (Dimethylsulfoxide) was used to dissolve the test compounds, and the final concentration of DMSO was less than 1%.
100 μl of the diluted cell solution was added to each well of the 96-well plate, which was incubated in an incubator for 96 hours.
Then, 20 μl of MTS ([…], Promega) solution was added to each well of the plate, and the plate was incubated in an incubator for 4 hours to induce discoloration. After 4 hours, the pellets were dissolved by way of a thorough shaking, and the absorbance at 490 nm was determined.

VEGFR2 (KDR) = VEGFR2 (KDR) (Homo sapiens (Human), UniProt P35968); assay: VEGFR2 (KDR) enzyme assay, fluorescence polarization; type: biochemical; conditions: 5 μM ATP, poly(Glu, Tyr) substrate
Chain of VEGFR2 (KDR) (P35968 20-1356): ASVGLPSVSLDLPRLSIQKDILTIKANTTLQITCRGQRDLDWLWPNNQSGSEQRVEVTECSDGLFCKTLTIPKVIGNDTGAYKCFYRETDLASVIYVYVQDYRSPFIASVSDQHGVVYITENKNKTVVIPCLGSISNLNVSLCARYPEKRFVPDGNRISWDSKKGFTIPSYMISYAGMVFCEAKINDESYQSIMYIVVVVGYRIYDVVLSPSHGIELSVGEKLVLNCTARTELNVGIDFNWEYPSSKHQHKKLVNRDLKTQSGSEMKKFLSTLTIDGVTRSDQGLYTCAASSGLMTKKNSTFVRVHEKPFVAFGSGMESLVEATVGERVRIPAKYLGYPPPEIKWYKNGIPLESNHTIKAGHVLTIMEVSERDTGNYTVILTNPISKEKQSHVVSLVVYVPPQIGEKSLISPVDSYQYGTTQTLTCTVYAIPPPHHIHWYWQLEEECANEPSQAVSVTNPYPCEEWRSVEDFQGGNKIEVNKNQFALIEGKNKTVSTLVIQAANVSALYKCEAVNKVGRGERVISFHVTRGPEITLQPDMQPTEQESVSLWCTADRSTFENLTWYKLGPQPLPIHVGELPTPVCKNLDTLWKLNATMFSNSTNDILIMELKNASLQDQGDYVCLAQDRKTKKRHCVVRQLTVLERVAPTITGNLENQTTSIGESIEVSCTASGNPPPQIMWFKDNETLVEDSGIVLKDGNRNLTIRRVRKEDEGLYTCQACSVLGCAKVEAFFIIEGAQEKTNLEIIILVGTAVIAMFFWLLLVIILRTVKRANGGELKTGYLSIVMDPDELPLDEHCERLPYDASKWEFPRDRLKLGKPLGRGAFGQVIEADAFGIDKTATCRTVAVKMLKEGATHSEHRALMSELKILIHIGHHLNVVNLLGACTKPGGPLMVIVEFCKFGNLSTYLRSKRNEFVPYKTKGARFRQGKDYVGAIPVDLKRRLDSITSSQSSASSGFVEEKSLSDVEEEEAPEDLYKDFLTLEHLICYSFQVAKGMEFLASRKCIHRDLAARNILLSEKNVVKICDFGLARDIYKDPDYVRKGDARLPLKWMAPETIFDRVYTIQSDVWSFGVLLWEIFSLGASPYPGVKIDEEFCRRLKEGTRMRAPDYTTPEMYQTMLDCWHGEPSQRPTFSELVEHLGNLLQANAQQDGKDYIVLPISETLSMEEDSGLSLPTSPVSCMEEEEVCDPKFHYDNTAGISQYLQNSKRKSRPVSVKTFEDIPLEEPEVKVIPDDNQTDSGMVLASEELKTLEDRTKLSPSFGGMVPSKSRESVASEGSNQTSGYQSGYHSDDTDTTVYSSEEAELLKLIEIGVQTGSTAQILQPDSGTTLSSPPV
Method: VEGFR2 (KDR, Proquinase) enzyme assay (auto-phosphorylation assay) was carried out by using Tyrosine Kinase Assay Kit Green (Panvera). The entire assay was conducted in accordance with VEGFR PTK inhibitor cellular activity test S.O.P.
A typical kinase inhibition reaction requires a protein tyrosine kinase, a suitable buffer solution system, a peptide substrate and ATP. In the present VEGFR tyrosine kinase assay, a buffer solution system containing 20 mM HEPES (pH 7.4), 5 mM MgCl2 and 2 mM MnCl2; 50 μM Na3VO4; 200 ng/10 μl VEGFR (Proquinase); 5 μM ATP; and 10 ng/ml poly(Glu, Tyr) (4:1, Sigma) as a substrate were used.
The compounds of Test Example 1 were used as control compounds at a concentration of 0.0001 to 10 μM. After 10 min, 10 μl of poly(Glu, Tyr) as a substrate was added to each well, and 10 μl of ATP was added thereto to initiate kinase reaction. The plate was incubated at room temperature for 1 hour, and 10 μl of 100 mM EDTA was added to each well to terminate the kinase reaction.
The added EDTA was mixed for 5 min. Thereafter, 10 μl of 10× anti-phosphotyrosine antibody (Panvera), 10 μl of 10×PTK Green Tracer (Panvera) and 30 μl of FP dilution buffer (Panvera) were added thereto, and the plate was incubated in a dark room at room temperature for 30 min.

[4] = test system: skin cancer cell line, A431; assay: Inhibitory effect on growth of cancer cell line A431, SRB; type: cell-based; conditions: overexpressed EGFR1 (HER-1)
Description: as §1, §2, §3, §4, §5

Compound | pIC50 ([1]; Homo sapiens, SK-BR-3, 72 h) | pIC50 ([2]; Homo sapiens, 72 h) | pIC50 (EGFR1 (HER-1)) | pIC50 (VEGFR2 (KDR)) | pIC50 ([4]; Homo sapiens, A-431, 72 h) | pIC50 ([1]; 72 hours) | pIC50 ([2]; 72 hours) | pIC50 ([4]; 72 hours) | pIC50 ([3]; Homo sapiens, 96 h) | pIC50 ([3]; 96 hours)
C=CC(=O)Nc1cc2c(Nc3ccc(Br)cc3F)ncnc2cc1OCCNC(=O)CCN(C)C [Example 61, N-{4-(4-bromo-2-fluoro-phenylamino)-7-[2-(3-dimethylamino-propionylamino)-ethoxy]-quinazolin-6-yl}-acrylamide] | 7.23 | 5.00 | 8.05 | 6.45 | 8.22 |  |  |  | 6.42 | 
C=CC(=O)Nc1cc2c(Nc3ccc(Br)cc3F)ncnc2cc1OCC1CCN(C(N)=O)CC1 [Example 4, 4-[6-acryloylamino-4-(4-bromo-2-fluoro-phenylamino)-quinazolin-7-yloxymethyl]-piperidin-1-carboxylic acid amide] | 6.83 | 5.25 | 7.82 | 6.87 | 7.60 |  |  |  | 7.06 | 
C=CC(=O)Nc1cc2c(Nc3ccc(Br)cc3F)ncnc2cc1OCCCNC(=O)C(F)(F)F [Example 14, N-{4-(4-bromo-2-fluoro-phenylamino)-7-[3-(2,2,2-trifluoro-acetylamino)-propoxy]-quinazolin-6-yl}-acrylamide] | 7.24 | 5.00 | 7.23 | 6.23 | 7.01 |  |  |  | 6.54 | 
C=CC(=O)Nc1cc2c(Nc3ccc(Br)cc3F)ncnc2cc1OCCNC(=O)CCOC [Example 64, N-{4-(4-bromo-2-fluoro-phenylamino)-7-[2-(3-methoxy-propionylamino)-ethoxy]-quinazolin-6-yl}-acrylamide] | 6.44 | 5.34 | 7.15 | 6.64 | 7.14 |  |  |  | 6.53 | 
N-{2-[6-acryloylamino-4-(4-bromo-2-fluoro-phenylamino)-quinazolin-7-yloxy]-ethyl}-malonic acid ethylester [Example 69] |  |  |  | 6.01 |  | 6.18 | 5.00 | 6.62 |  | 6.02
C=CC(=O)Nc1cc2c(Nc3ccc(Br)cc3F)ncnc2cc1OCCNS(C)(=O)=O [Example 33, N-[4-(4-bromo-2-fluoro-phenylamino)-7-(2-methanesulfonylamino-ethoxy)-quinazolin-6-yl]-acrylamide] | 6.78 | 5.00 |  | 6.43 | 7.47 |  |  |  | 6.41 | 
C=CC(=O)Nc1cc2c(Nc3ccc(Br)cc3F)ncnc2cc1OCCNC(=O)CCN [Example 62, N-[7-[2-(3-amino-propionylamino)-ethoxy]-4-(4-bromo-2-fluoro-phenylamino)-quinazolin-6-yl]-acrylamide] | 6.43 | 6.14 |  | 6.13 |  |  |  |  | 6.16 | 

The next lines start with results.

pIC50 ([1]; Homo sapiens, SK-BR-3, 72 h) | pIC50 ([2]; Homo sapiens, 72 h) | pIC50 (EGFR1 (HER-1)) | pIC50 (VEGFR2 (KDR)) | pIC50 ([4]; Homo sapiens, A-431, 72 h) | pIC50 ([1]; 72 hours) | pIC50 ([2]; 72 hours) | pIC50 ([4]; 72 hours) | Compound | pIC50 ([3]; Homo sapiens, 96 h) | pIC50 ([3]; 96 hours)
6.18 | 6.14 | 6.60 | 6.43 | 6.49 |  |  |  | C=CC(=O)Nc1cc2c(Nc3ccc(Br)cc3F)ncnc2cc1OCCNC(=O)C(C)CN(C)C (stereo not shown) [Example 74, N-{4-(4-bromo-2-fluoro-phenylamino)-7-[2-(3-dimethylamino-2-methyl-propionylamino)-ethoxy]-quinazolin-6-yl}-acrylamide] | 6.45 | 
5.48 | 5.00 |  | 6.00 | 6.39 |  |  |  | C=CC(=O)Nc1cc2c(Nc3ccc(Br)cc3F)ncnc2cc1OCCNC(=O)c1ccc[nH]1 [Example 99, 1H-pyrrole-2-carboxylic acid {2-[6-acryloylamino-4-(4-bromo-2-fluoro-phenylamino)-quinazolin-7-yloxy]-ethyl}-amide] | 6.00 | 
6.82 | 5.02 | 7.24 | 6.51 | 7.17 |  |  |  | C=CC(=O)Nc1cc2c(Nc3ccc(Br)c(Cl)c3F)ncnc2cc1OCCNC(=O)CN(CC)CC [Example 151, N-{4-(4-bromo-3-chloro-2-fluoro-phenylamino)-7-[2-(2-diethylamino-acetylamino)-ethoxy]-quinazolin-6-yl}-acrylamide] | 6.45 | 
7.15 | 5.00 | 7.59 | 7.03 | 7.47 |  |  |  | C=CC(=O)Nc1cc2c(Nc3ccc(Br)cc3F)ncnc2cc1OCC(C)NC(=O)CC (stereo not shown) [Example 84, N-[4-(4-bromo-2-fluoro-phenylamino)-7-(2-propionylamino-propoxy)-quinazolin-6-yl]-acrylamide] | 6.95 | 
6.62 | 5.53 | 7.72 | 6.66 | 7.66 |  |  |  | C=CC(=O)Nc1cc2c(Nc3ccc(Br)c(F)c3F)ncnc2cc1OCCNC(=O)CCN(CC)CC [Example 125, N-{4-(4-bromo-2,3-difluoro-phenylamino)-7-[2-(3-diethylamino-propionylamino)-ethoxy]-quinazolin-6-yl}-acrylamide] | 6.18 | 
6.73 | 5.00 |  | 6.90 | 7.59 |  |  |  | C=CC(=O)Nc1cc2c(Nc3c(F)cc(Br)cc3F)ncnc2cc1OCCNC(C)=O [Example 120, N-[7-(2-acetylamino-ethoxy)-4-(4-bromo-2,6-difluoro-phenylamino)-quinazolin-6-yl]-acrylamide] | 6.57 | 
6.85 | 5.00 |  | 6.10 | 6.81 |  |  |  | C=CC(=O)Nc1cc2c(Nc3ccc(Br)cc3F)ncnc2cc1OCCNC(=O)C(CO)N(C)C (stereo not shown) [Example 162, N-{4-(4-bromo-2-fluoro-phenylamino)-7-[2-(2-dimethylamino-3-hydroxy-propionylamino)-ethoxy]-quinazolin-6-yl}-acrylamide] | 6.05 | 
7.00 | 5.02 |  | 6.94 | 7.72 |  |  |  | C=CC(=O)Nc1cc2c(Nc3ccc(Cl)cc3F)ncnc2cc1OCCNC(C)=O [Example 112, N-[7-(2-acetylamino-ethoxy)-4-(4-chloro-2-fluoro-phenylamino)-quinazolin-6-yl]-acrylamide] | 6.72 | 
